Assay results: patent US20050170966A1, “Surfactants and surfactant compositions” (priority 2002, published 2005)

Tested on: mixtures of weeds: Cockspur (Echinochloa crus-galli), Fat-hen (Chenopodium album), Smartweed (Polygonum persicaria)
Test: Field trial: adjuvant effect on Glyphosate herbicidal activity on mixed weed plots
Format: in vivo
Conditions: glyphosate 1080 g(a.e.).ha^-1, adjuvant 540 g.ha^-1 (2:1)
Experimental: This Example tests the effect of adjuvants on Glyphosate herbicidal activity under field conditions. The herbicide was applied to test plots of weeds at a rate of 1080 g(a.e.).ha^−1 (350 l.ha^−1 of spray containing 3.086 g.l^−1 a.e.) with a weight ratio of active to adjuvant of 2:1=540 g(adjuvant).ha^−1. Spray plots were treated with the herbicide formulations, one of each of four adjuvants of the invention (SE1, SE2, SE3, and SE4) a fatty amine ethoxylate (FAE1) for comparison, or left untreated as controls (no weed control). The spray plots were in a completely randomised block design with 3 replicates of 3×5 m plots. the sprayed plots were sprayed using a compressed-air AZO sprayer at a pressure of 2.5 bar, equipped with Teejet XR80015VS nozzles. During this trial, it rained for about 15 minutes about 2 hours after spraying, giving a good indication of the rainfastness off the formulations tested.
The test plots used mixtures of the following weeds at the 2 to 4 leaf stage:
The results of spraying were evaluated by visual comparison with untreated control blocks 12, 20 and 35 days after treatment (DAT), assessing chlorosis (chlor) and growth inhibition (inhib) as percentages with 0=no effect and 100=complete kill as compared with the untreated controls.

[1] = 12 DAT, 0=no effect, 100=complete kill

Molecule | inhib (%) growth inhibition (12 DAT) | chlor (%) chlorosis [1] | chlor (%) chlorosis (20 DAT) | inhib (%) growth inhibition (20 DAT) | chlor (%) chlorosis (35 DAT) | inhib (%) growth inhibition (35 DAT)
CCCCCCCCCCCCCCCCCCOCCOCCOCCOCCOCCOCCOCCOCCOCCOCCOCCOCCOCCOCCOCCOCCOCCOCCOCCOCCOCCOCCOCCOCCOCCOCC(O)CN(CC)CC (stereo not drawn) [SE3, 1-diethylamino-2-hydroxypropane-3-(stearyl 25-ethoxylate)] | 63% | 62% | 72% | 72% | 68% | 75%
1-[Diethylamino]-2-hydroxypropane-3-(Alc1 15-ethoxylate) [SE1] | 67% | 62% | 77% | 78% | 78% | 78%
1-[Bis-(2-hydroxyethyl)-amino]-2-hydroxypropane-3-(stearyl 25-ethoxylate) [SE4] | 62% | 63% | 75% | 75% | 65% | 68%
